Reference: ChEMBL document CHEMBL1156327, “Synthesis and biological evaluation of anti-1-amino-2-[18F]fluoro-cyclobutyl-1-carboxylic acid (anti-2-[18F]FACBC) in rat 9L gliosarcoma” (Bioorg Med Chem Lett, 2010)

How the values were obtained:
[1] = Ratio of drug level in Fisher 344 rat brain to rat 9L tumor cells implanted in Fisher 344 rat after 15 mins; format: ADME, cell-based; settings: 0.25 h
[2] = Ratio of drug level in Fisher 344 rat brain to rat 9L tumor cells implanted in Fisher 344 rat after 120 mins; format: ADME, cell-based; settings: 2 h
[3] = Drug uptake in rat 9L cells xenografted Fisher 344 rat brain measured per gram of tissue; format: ADME, cell-based; settings: Fischer 344, rat, read-out: Drug uptake
[4] = Drug uptake in rat 9L tumor implanted in Fischer 344 rat after 15 mins relative to control; format: ADME, Neoplasm; settings: read-out: Drug uptake
[5] = Drug uptake in rat 9L tumor implanted in Fischer 344 rat after 60 mins relative to control; format: ADME, Neoplasm; settings: read-out: Drug uptake
[6] = Ratio of drug level in Fisher 344 rat brain to rat 9L tumor cells implanted in Fisher 344 rat after 30 mins; format: ADME, cell-based; settings: 0.5 h
[7] = Ratio of drug level in Fisher 344 rat brain to rat 9L tumor cells implanted in Fisher 344 rat after 60 mins; format: ADME, cell-based; settings: 1 h
[8] = system: 9L; test: Cellular uptake in rat 9L cells after 30 mins measured per 0.5 million cells; format: ADME, cell-based; settings: 0.5 h
[9] = Drug uptake in rat 9L tumor implanted in Fischer 344 rat after 30 mins relative to control; format: ADME, Neoplasm; settings: read-out: Drug uptake
[10] = Drug uptake in rat 9L tumor implanted in Fischer 344 rat after 120 mins relative to control; format: ADME, Neoplasm; settings: read-out: Drug uptake

N[C@@]1(C(=O)O)CC[C@@H]1[18F]
Ratio [1]: 12
Ratio [2]: 26
tissue uptake [3]: 0.04 %ID/g
tissue uptake at 0.25 h [4]: 0.51 %ID/g
tissue uptake at 1 h [5]: 0.65 %ID/g
Ratio [6]: 17
Ratio [7]: 14
Drug uptake [8]: 3.3%
tissue uptake at 0.5 h [9]: 0.66 %ID/g
tissue uptake at 2 h [10]: 0.6 %ID/g

N[C@]1(C(=O)O)C[C@@H](C[18F])C1
Ratio [6]: 8.9

N[C@]1(C(=O)O)C[C@H](C[18F])C1
Ratio [6]: 6.9

N[C@]1(C(=O)O)C[C@H]([18F])C1
Ratio [6]: 7.6

N[C@]1(C(=O)O)C[C@@H]([18F])C1 [FLUCICLOVINE F18]
Ratio [6]: 6.6
